17 compounds from ChEMBL document CHEMBL4819065, “Gelstriamine A, a Triamino Monoterpene Indole Alkaloid with a Caged 6/5/7/6/6/5 Scaffold and Analgesic Alkaloids from Gelsemium elegans Stems” (2021) can be followed below.

The source made the active and inactive calls. The rule behind the calls is not given here.

One test deals with Mus musculus. The test can be described thus: Analgesic activity in Kunming mouse assessed as inhibition of acetic acid-induced writhing at 0.2 mg/kg, ip pretreated with compound for 30 mins followed by acetic acid challenge and measured after 30 mins. The settings on record: 1 h, time 60 min. In kind it is functional.
As for `C/C=C1\C[N@+](C)([O-])[C@H]2C[C@@]3(C(=O)Nc4ccccc43)[C@H]3C[C@@H]1[C@@H]2CO3`, the inhibition in vivo at 0.2 mg/kg is 76.1%.

A further test deals with Mus musculus. The test can be described thus: Analgesic activity in Kunming mouse assessed as inhibition of acetic acid-induced writhing at 1 mg/kg, ip pretreated with compound for 30 mins followed by acetic acid challenge and measured after 30 mins. The note with it: 1 h, time 60 min. In kind it is functional.
As to `CC[C@@]12OC(=O)N[C@@H]1N(C)[C@H]1C[C@@]3(C(=O)N(OC)c4ccccc43)[C@H]3C[C@@H]2[C@@H]1CO3`, the inhibition in vivo at 1 mg/kg stood at 64.7%.

Another test concerns Mus musculus. Description: Analgesic activity in Kunming mouse assessed as inhibition of acetic acid-induced writhing at 5 mg/kg, ip pretreated with compound for 30 mins followed by acetic acid challenge and measured after 30 mins. In kind it is functional, organism-based. The note with it: time 60.0 min.
Take `C/C=C1\C[N@+](C)([O-])[C@H]2C[C@@]3(C(=O)N(OC)c4ccccc43)[C@H]3C[C@@H]1[C@@H]2CO3`: the result was Active. Consider `C=CC12CN[C@@H]3[C@H]4CO[C@H](CC41)[C@]1(C(=O)Nc4ccccc41)[C@@H]32`, for which the outcome was Active. On to `C/C=C1\CN(C)[C@H]2C[C@@]3(C(=O)N(OC)c4ccccc43)[C@H]3C[C@@H]1[C@@H]2CO3`, for which the outcome was Active. Still for that read-out and setting: the entry for `C/C=C1\CN(C)[C@H]2C[C@@]3(C(=O)N(OC)c4cc(O)ccc43)[C@H]3C[C@@H]1[C@@H]2CO3` is “Active”; for `C/C=C1\C[N@+](C)([O-])[C@H]2C[C@@]3(C(=O)N(OC)c4cc(O)ccc43)[C@H]3C[C@@H]1[C@@H]2CO3` it is “Active”; for `CC[C@@]12OC(=O)N[C@@H]1N(C)[C@H]1C[C@@]3(C(=O)N(OC)c4ccccc43)[C@H]3C[C@@H]2[C@@H]1CO3` it is “Active”. Consider `C/C=C1\C[N@@+]2([O-])[C@H]3C[C@@H]1[C@@H](CO)[C@@H]2Cc1c3[nH]c2ccccc12`, for which the outcome was Active.

As to `C/C=C1\CN[C@H]2C[C@@]3(C(=O)N(OC)c4cc(OC)ccc43)[C@H]3C[C@@H]1[C@@H]2CO3`, the outcome was Active.

With `C=C[C@@]12CN[C@@H]3C[C@]14C(=Nc1ccccc14)[C@H]1C[C@@H]2[C@@H]3CO1`, the result was Active. Consider `CON1C(=O)[C@@]2(C[C@@H]3N[C@](CO)([C@@H](C)O)[C@@H]4C[C@H]2OC[C@H]34)c2ccccc21`, for which the result was Active.

For `C/C=C1\CN2[C@H]3C[C@@H]1[C@@H](CO)[C@@H]2Cc1c3[nH]c2ccccc12`, the outcome was Active. As to `c1ccc2[nH]c(-c3cc4c(cn3)CCCC4)cc2c1`, the outcome was Active. Consider `CC[C@@]1(CO)N[C@H]2C[C@@]3(C(=O)N(OC)c4ccccc43)[C@H]3C[C@@H]1[C@@H]2CO3`, for which the outcome was Active.

Regarding `C/C=C1\CN(C)[C@H]2C[C@@]3(C(=O)Nc4ccccc43)[C@H]3C[C@@H]1[C@@H]2CO3`, the result was Active. For `COc1ccc2c(c1)N(OC)C(=O)[C@@]21C[C@@H]2N[C@](CO)([C@@H](C)O)[C@@H]3C[C@H]1OC[C@H]23`, the outcome was Active.

For the compound `C/C=C1\CN2[C@H]3C[C@@H]1[C@H](CO)[C@@H]2Cc1c3[nH]c2ccccc12`, the result was Active.

For `C/C=C1\C[N@+](C)([O-])[C@H]2C[C@@]3(C(=O)Nc4ccccc43)[C@H]3C[C@@H]1[C@@H]2CO3`, the outcome was Active.

In the next test the test system is Mus musculus. Description: Analgesic activity in Kunming mouse assessed as inhibition of acetic acid-induced writhing at 0.04 mg/kg, ip pretreated with compound for 30 mins followed by acetic acid challenge and measured after 30 mins. In kind it is functional. The note with it: 1 h, time 60 min.
Consider `C/C=C1\C[N@+](C)([O-])[C@H]2C[C@@]3(C(=O)Nc4ccccc43)[C@H]3C[C@@H]1[C@@H]2CO3`, for which the inhibition in vivo at 0.04 mg/kg came out at 67.6%.
